Measurements published in ChEMBL document CHEMBL3414522, “Design, synthesis, and biological evaluation of novel matrix metalloproteinase inhibitors as potent antihemorrhagic agents: from hit identification to an optimized lead” (J Med Chem, 2015).

What was measured:
[1] = in vitro; settings: human, liver microsomes
[2] = in vitro; settings: mouse, liver microsomes
[3] = in vitro; settings: rat, liver microsomes
[4] = Apparent permeability from apical to basolateral side in human Caco2 cells at 2 uM after 120 mins by LC-MS/MS analysis; assay type: ADME, cell-based; settings: caco-2, 2 h

SMILES: O=C(NO)C1(S(=O)(=O)c2ccc(Oc3ccc(OC(F)(F)F)cc3)cc2)CCC2(CCNCC2)C1 (centres undefined)
- remaining at 20 min, 1 µM [1]: 92.1%
- remaining at 20 min, 1 µM [2]: 87.2%
- remaining at 20 min, 1 µM [3]: 95.6%

SMILES: CNC(=O)c1ccc(Oc2ccc(S(=O)(=O)C3(C(=O)NO)CCC4(CCNCC4)C3)cc2)cc1 (centres undefined)
- remaining at 20 min, 1 µM [1]: 91.1%
- remaining at 20 min, 1 µM [2]: 97.5%
- remaining at 20 min, 1 µM [3]: 99.8%

SMILES: CNC(=O)c1ccc(Oc2ccc(S(=O)(=O)[C@@]3(C(=O)NO)CCC4(CCNCC4)C3)cc2)cc1
- Papp [4]: 0.00059 ×10⁻⁶ cm/s
- remaining at 20 min, 1 µM [1]: 97%
- remaining at 20 min, 1 µM [2]: 89.6%
- remaining at 20 min, 1 µM [3]: 97.4%

SMILES: CNC(=O)c1ccc(Oc2ccc(S(=O)(=O)[C@]3(C(=O)NO)CCC4(CCNCC4)C3)cc2)cc1
- Papp [4]: 0.00016 ×10⁻⁶ cm/s
- remaining at 20 min, 1 µM [1]: 93.5%
- remaining at 20 min, 1 µM [2]: 98%
- remaining at 20 min, 1 µM [3]: 98.1%
